Source: patent US20180250321A1, “COMPOSITIONS AND METHODS FOR RESTORING THE IMMUNE SYSTEM” (ORPHEUS THERAPEUTICS, INC., priority 2017, published 2018)

How the values were obtained:
[1] = tested on: NKT cells; test: IFNγ production in mice injected with glycolipid in the presence or absence of GD3 (FIG. 18); format: in vivo, wild-type C57BL/6 mice; details: C57BL/6 mice
Experimental: OT-0010 is effective at restoring NKT cell function when wild-type C57BL/6 mice were injected intravenously with either αGalCer (KRN7000) or OT-0010 in the presence or absence of GD3.
In addition, the glycolipids of the present invention are able to fully restore IFN-γ levels, and cause a restoration of NKT cells to a Th-1 response profile (FIG. 18). […] When α-GalCer is administered at a dosage of 3 μgm, only 50% NKT cell function is restored (FIG. 25). While not wishing to be bound by theory, the reason why the glycolipids of the present invention are able to restore NKT cells to a Th-1 response profile is because these glycolipids bind more strongly to CD1d. From a thermodynamic perspective, it is impossible for GD3 to displace these glycolipids from CD1d. […] Again, while not wishing to be bound by theory, it is believed that the glycolipids of the present invention bind more strongly to CD1d due to the incorporation of the -phenyl ring to the distal end of the aliphatic carbon chain attached to the amide group connected to the C1 glycoside linkage of the galactose sugar moiety. The terminal fluorine, —OMe, or —CF3 further enhance the binding of the glycolipids of the present invention to CD1d. The results disclosed in FIG. 18 are unexpected.

[2] = tested on: NKT cells; details: cited from earlier work

Compound | IFNγ production ([1]; substance alone, intravenous) | α-GalCer-induced cytokine production in vivo (IFN-γ, IL-4, IL-12) ([2]; 1 μg α-GalCer intravenously with or without GD3, serum ELISA) | IFN-γ production by NKT cells ([2]; FIG. 25, effect of GD3) | IFNγ production ([1]; glycolipid + GD3, intravenous) | restoration of IFN-γ levels ([2]; FIG. 25, in the presence of GD3) | NKT cell function restored ([2]; dosage of 3 μgm, in the presence of GD3, FIG. 25)
Ganglioside D3 [GD3] | Inhibition of IFNγ production | inhibits | dramatic decrease in IFN-γ production |  |  | 
CCCCCCCCCCCCCCCCCCCCCCCCCC(=O)N[C@@H](CO[C@H]1O[C@H](CO)[C@H](O)[C@H](O)[C@H]1O)[C@H](O)[C@H](O)CCCCCCCCCCCCCC [α-GalCer] |  |  |  | Inhibition of IFNγ production | does not restore IFN-γ levels | 50%
